# In patent publication US20040141914A1, “Cancerous disease modifying antibodies” (priority 2003, published 2004):
# Legend:
# PC-3 = tested on: PC-3; parameters: key to the marks not given beside the values
# OVCAR = tested on: OVCAR; parameters: key to the marks not given beside the values
# MCF-7 = tested on: MCF-7; parameters: key to the marks not given beside the values
# HT-29 = tested on: HT-29; parameters: key to the marks not given beside the values
# MB-468 = tested on: MB-468; parameters: key to the marks not given beside the values
# [1] = Live/Dead cytotoxicity assay, hybridoma supernatant; conditions: human
# NCI H460 = tested on: NCI H460; parameters: key to the marks not given beside the values
# MB-231 = tested on: MB-231; parameters: key to the marks not given beside the values
structure (smiles),measurement,setting,value
C[C@@H]1C[C@@H]([C@H](O)CC2CC(=O)NC(=O)C2)C(=O)[C@@H](C)C1 [Cycloheximide],"cytotoxicity, experiments greater than threshold, PC-3",PC-3,+++
same,"cytotoxicity, experiments greater than threshold, OVCAR",OVCAR,+++
same,"cytotoxicity, experiments greater than threshold, MCF-7",MCF-7,+++
same,"cytotoxicity, experiments greater than threshold, HT-29",HT-29,+++
same,"cytotoxicity, experiments greater than threshold, MB-468",MB-468,+++
same,cytotoxicity at 5 days,[1],17%
same,"cytotoxicity, experiments greater than threshold, NCI H460",NCI H460,+++
same,"cytotoxicity, experiments greater than threshold, MB-231",MB-231,+++
